Assay results as given in paper PMC12566593, “Effects of Different Centrifugation Parameters on Equilibrium Solubility Measurements” (Methods and Protocols, 2025).
Values after ≈ are worked out from the molar mass of the structure shown. Like-named read-outs stand apart in the source and are kept apart here. Values belong to the molecule of their own block, whether it stands above or below them.

Key:
[1] = Equilibrium solubility, saturation shake-flask, sedimentation as phase separation (reference, standard protocol); details: for solubility: Britton-Robinson buffer, 6 h stirring, 18 h sedimentation, 25 °C
[2] = Ionization state calculated from pKa and buffer pH; format: physicochemical
[3] = Equilibrium solubility, saturation shake-flask, centrifugation as phase separation; details: for solubility thermodynamic at 24 h / solubility thermodynamic: Britton-Robinson buffer; for solubility thermodynamic at 24 h: continuously stirred, no sedimentation; for solubility thermodynamic: pH 7.4, Equilibrium solubility S sed, sedimented before centrifugation
[4] = cited from earlier work; for Filtration: Result Range: % of reference, all filters
[5] = cited from earlier work
[6] = cited from earlier work; remark: listed apart in the source
[7] = pH 7.4

solubility ([1]; pH 2, Solubility (reference), pH 2.0): 1.67 ± 0.05 µg/mL
solubility ([1]; pH 10, Solubility (reference), pH 10.0): 9470 ± 327 µg/mL
Increase of solubility compared to the unionized form ([1]; pH 10.0 (fully ionized) vs unionized form): 5670 fold
Fraction ionized ([2]; pH 2.0): about 1%
Fraction ionized ([2]; pH 4.0): around 50%
solubility thermodynamic at 24 h ([3]; 25 °C, pH 10, aqueous buffer, thermodynamic from solid, Equilibrium solubility S stir, pH 10.0, 10,000 rpm, 20 min): 11200 µg/mL
solubility thermodynamic at 24 h ([3]; pH 2, Equilibrium solubility S stir, pH 2.0, 5000 rpm, 5 min): 1.64 ± 0.04 µg/mL
solubility thermodynamic at 24 h ([3]; pH 2, Equilibrium solubility S stir, pH 2.0, 5000 rpm, 10 min): 1.52 ± 0.22 µg/mL
solubility thermodynamic at 24 h ([3]; pH 2, Equilibrium solubility S stir, pH 2.0, 5000 rpm, 20 min): 1.71 ± 0.07 µg/mL
solubility thermodynamic at 24 h ([3]; pH 2, Equilibrium solubility S stir, pH 2.0, 10,000 rpm, 5 min): 1.82 ± 0.07 µg/mL
solubility thermodynamic at 24 h ([3]; pH 2, Equilibrium solubility S stir, pH 2.0, 10,000 rpm, 10 min): 1.78 ± 0.07 µg/mL
solubility thermodynamic at 24 h ([3]; pH 2, Equilibrium solubility S stir, pH 2.0, 10,000 rpm, 20 min): 2 ± 0.13 µg/mL
solubility thermodynamic at 24 h ([3]; pH 4, Equilibrium solubility S stir, pH 4.0, 5000 rpm, 5 min): 2.7 ± 0.1 µg/mL
solubility thermodynamic at 24 h ([3]; pH 4, Equilibrium solubility S stir, pH 4.0, 5000 rpm, 10 min): 2.69 ± 0.24 µg/mL
solubility thermodynamic at 24 h ([3]; pH 4, Equilibrium solubility S stir, pH 4.0, 5000 rpm, 20 min): 2.58 ± 0.16 µg/mL
solubility thermodynamic at 24 h ([3]; pH 4, Equilibrium solubility S stir, pH 4.0, 10,000 rpm, 5 min): 2.79 ± 0.2 µg/mL
solubility thermodynamic at 24 h ([3]; pH 4, Equilibrium solubility S stir, pH 4.0, 10,000 rpm, 10 min): 2.8 ± 0.11 µg/mL
solubility thermodynamic at 24 h ([3]; pH 4, Equilibrium solubility S stir, pH 4.0, 10,000 rpm, 20 min): 2.88 ± 0.18 µg/mL
solubility thermodynamic at 24 h ([3]; pH 10, Equilibrium solubility S stir, pH 10.0, 5000 rpm, 10 min): 9810 ± 318 µg/mL
solubility thermodynamic at 24 h ([3]; pH 10, Equilibrium solubility S stir, pH 10.0, 5000 rpm, 20 min): 10700 µg/mL
solubility thermodynamic at 24 h ([3]; pH 10, Equilibrium solubility S stir, pH 10.0, 10,000 rpm, 5 min): 9660 ± 760 µg/mL
Centrifugation: Closest to Reference (100%) ([3]; pH 2.0): 100%
Centrifugation: Closest to Reference (100%) ([3]; pH 4.0): 99%
Centrifugation: Closest to Reference (100%) ([3]; pH 10.0): 98%
SMILES: O=C(O)Cc1ccccc1Nc1c(Cl)cccc1Cl [DICL-NA, Diclofenac sodium]
Measured concentration after filtration ([4]; nylon filter, low pH values): dropped to zero
Filtration: Result Range ([4]; pH 2.0): 0–164%
Filtration: Closest to Reference (100%) ([4]; pH 2.0): 93%
Filtration: Result Range ([4]; pH 4.0): 0–103%
Filtration: Closest to Reference (100%) ([4]; pH 4.0): 103%
Filtration: Result Range ([4]; pH 10.0): 64–99%
Filtration: Closest to Reference (100%) ([4]; pH 10.0): 99%

SMILES: NS(=O)(=O)c1cc2c(cc1Cl)NCNS2(=O)=O [HCT, hydrochlorothiazide]
Fraction in dianionic form ([2]; pH 8.8): 4%
Fraction monoanionic ([2]; pH 8.8): 51%
Fraction unionized ([2]; pH 8.8): 45%
pKa ([5]; first pKa for HCT): 8.75
pKa (second value) ([5]; second pKa of the diprotic acid): 9.96
Filtration: Result Range ([4]; pH 6.0): 83–103%
Filtration: Closest to Reference (100%) ([4]; pH 6.0): 102%
Filtration: Result Range ([4]; pH 8.8): 75–100%
Filtration: Closest to Reference (100%) ([4]; pH 8.8): 100%
Filtration: Result Range ([4]; pH 11.0): 65–119%
Filtration: Closest to Reference (100%) ([4]; pH 11.0): 100%

solubility ([1]; pH 7.4, Solubility (reference), pH 7.4): 8.98 ± 0.09 µg/mL (≈ 28.6 µM)
solubility thermodynamic ([3]; pH 7.4, 5000 rpm, 5 min): 10.9 ± 0.09 µg/mL (≈ 34.7 µM)
solubility thermodynamic ([3]; pH 7.4, 5000 rpm, 10 min): 10.9 ± 0.09 µg/mL (≈ 34.7 µM)
solubility thermodynamic ([3]; pH 7.4, 5000 rpm, 20 min): 11.5 ± 0.06 µg/mL (≈ 36.6 µM)
solubility thermodynamic ([3]; pH 7.4, 10,000 rpm, 5 min): 11 ± 0.12 µg/mL (≈ 35 µM)
solubility thermodynamic ([3]; pH 7.4, 10,000 rpm, 10 min): 11.6 ± 0.11 µg/mL (≈ 36.9 µM)
solubility thermodynamic ([3]; pH 7.4, 10,000 rpm, 20 min): 12.4 ± 0.06 µg/mL (≈ 39.4 µM)
solubility thermodynamic at 24 h ([3]; pH 7.4, Equilibrium solubility S stir, pH 7.4, 5000 rpm, 5 min): 11 ± 0.06 µg/mL (≈ 35 µM)
solubility thermodynamic at 24 h ([3]; pH 7.4, Equilibrium solubility S stir, pH 7.4, 5000 rpm, 10 min): 11.3 ± 0.14 µg/mL (≈ 35.9 µM)
solubility thermodynamic at 24 h ([3]; pH 7.4, Equilibrium solubility S stir, pH 7.4, 5000 rpm, 20 min): 12.8 ± 0.05 µg/mL (≈ 40.7 µM)
solubility thermodynamic at 24 h ([3]; pH 7.4, Equilibrium solubility S stir, pH 7.4, 10,000 rpm, 5 min): 11 ± 0.18 µg/mL (≈ 35 µM)
solubility thermodynamic at 24 h ([3]; pH 7.4, Equilibrium solubility S stir, pH 7.4, 10,000 rpm, 10 min): 11.7 ± 0.14 µg/mL (≈ 37.2 µM)
solubility thermodynamic at 24 h ([3]; pH 7.4, Equilibrium solubility S stir, pH 7.4, 10,000 rpm, 20 min): 13.3 ± 0.2 µg/mL (≈ 42.3 µM)
Increase in measured solubility caused by centrifugation ([3]; vs reference, pH 7.4): at least 20%
Centrifugation: Closest to Reference (100%) [7]: 121%
Centrifugation: Result Range [7]: 121–148%
SMILES: CC(=O)[C@H]1CC[C@H]2[C@@H]3CCC4=CC(=O)CC[C@]4(C)[C@H]3CC[C@]12C [PROG, progesterone]
logP [6]: 3.48
Filtration: Result Range ([4]; pH 7.4): 55–98%
Filtration: Closest to Reference (100%) ([4]; pH 7.4): 98%
